In assay [1] the test system is tumor promotion. The settings on record: prior art, in words, cited from earlier work.
For assay [2], the target named is T1, ras farnesyl transferase (Bos taurus, UniProt P29702+P49355).
T1 construct: ras farnesyl transferase obtained from bovine brain; from tissue; host or cells: bovine brain
Description: inhibition of the farnesylation of ras-p21 by ras farnesyl transferase (3H-farnesylpyrophosphate incorporation). The class given is biochemical, bovine. As for the experimental part:
This inhibitory activity is assayed using partially purified ras farnesyl transferase obtained from bovine brain by DEA gel filtration (J. Biol. Chem., 260, 15575, 1991) purified to display a single band in gel electrophoresis. […] This mixture is incubated at 37° C. for 20 minutes. The solutes are then precipitated with trichloroacetic acid (TCA) and the precipitate is filtered on a glass filter. The amount of farnesyl incorporated into the ras-p21 is then determined by liquid scintillation.

Like-named read-outs stand apart in the source and are kept apart here. Where only a bound is given, the exact number is not on record here.

In general, IC50 refers to the concentration that inhibits the measured activity by half. Lower therefore signals greater potency in that assay.

For `C=C(C)C1CC=C(C)CC1` (stereo not shown) [Limonene, 1-methyl-4-(methylethenyl) cylcohexene], in assay [1], the anti-tumor promoter activity entry was “has not been shown to have substantial anti-tumor promoter activity”. Turning to `C/C1=C\C=C(\C(C)C)[C@@H](O)[C@H](O)/C(C)=C/CC/C(C)=C/CC1` [Sarcophytol B], the anti-tumor promoter activity result in assay [1] is on record as “have been shown to have anti-tumor promoter activity”. `CCCCC[C@H](O)CC(=O)CCc1ccc(O)c(OC)c1` [Gingerol, (S)-5-Hydroxy-1-(4-hydroxy-3-methoxyphenyl)-3-decanone]: in assay [1], the anti-tumor promoter activity entry is “reported to be an inhibitor of tumor promotion”. On to `CC1=CC=C(C(C)C)C(O)CC(C)=CCCC(C)=CCC1` (stereo not shown) [Sarcophytol A], for which, in assay [2] (37° C., 20 minutes, pH 7.5, 0.67 μM 3H-Farnesylpyrophosphate, 4 μg ras-p21), the IC50 is > 1000 µM. Also, in assay [2] (conclusion from Example 7), the “inhibition of the farnesylation of ras-p21, in words” value is recorded as “does not appear to be an effective inhibitor”. Also, the anti-tumor promoter activity result is reported as “have been shown to have anti-tumor promoter activity” in assay [1] and “displays antitumor promoting properties” in assay [1] (listed as sarcophytol A).

The values above are taken from patent US5276217A, “Cyclic anti-tumor promoter compounds, compositions and methods for production and use” (University of Hawaii, priority 1992, dated 1994).
